Our source for the IC50 values is US20130281465A1, “PYRAZOLE DERIVATIVE” (TAISHO PHARMACEUTICAL CO., LTD., priority 2010, published 2013).

The target in experiment [1] is T1, orexin type 2 receptor (hOX2R) (Homo sapiens, UniProt O43614).
T1 construct: expressed in transfected cells; host or cells: Chinese hamster ovary (CHO) cells
T1 sequence (O43614 1-444): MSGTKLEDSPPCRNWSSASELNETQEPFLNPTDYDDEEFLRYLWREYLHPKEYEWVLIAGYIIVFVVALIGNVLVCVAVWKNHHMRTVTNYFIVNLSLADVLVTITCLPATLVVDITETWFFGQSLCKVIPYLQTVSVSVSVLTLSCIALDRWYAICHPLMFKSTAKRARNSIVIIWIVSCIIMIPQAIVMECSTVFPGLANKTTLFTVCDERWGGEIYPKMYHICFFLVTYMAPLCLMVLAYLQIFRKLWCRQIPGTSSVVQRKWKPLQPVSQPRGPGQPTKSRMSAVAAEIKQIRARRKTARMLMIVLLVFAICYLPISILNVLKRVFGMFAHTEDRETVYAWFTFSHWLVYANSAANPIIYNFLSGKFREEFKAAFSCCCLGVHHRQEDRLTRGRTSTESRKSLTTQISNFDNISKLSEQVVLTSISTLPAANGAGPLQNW
Put plainly: Orexin receptor antagonistic activity, intracellular Ca2+ fluorescence (FDSS) in CHO cells expressing hOX2R. The experiment is classed as cell-based. The following applies: CHO cells forced to express hOX2R; orexin-A analogue peptide ligand 3 nM; Fluo-4 maximum fluorescence; read-out: IC50 value OX2R.

Experiment [2] has as its target T2, human orexin type 1 receptor (hOX1R) (Homo sapiens, UniProt O43613).
T2 construct: expressed in transfected cells; host or cells: Chinese hamster ovary (CHO) cells
T2 sequence (O43613 1-425): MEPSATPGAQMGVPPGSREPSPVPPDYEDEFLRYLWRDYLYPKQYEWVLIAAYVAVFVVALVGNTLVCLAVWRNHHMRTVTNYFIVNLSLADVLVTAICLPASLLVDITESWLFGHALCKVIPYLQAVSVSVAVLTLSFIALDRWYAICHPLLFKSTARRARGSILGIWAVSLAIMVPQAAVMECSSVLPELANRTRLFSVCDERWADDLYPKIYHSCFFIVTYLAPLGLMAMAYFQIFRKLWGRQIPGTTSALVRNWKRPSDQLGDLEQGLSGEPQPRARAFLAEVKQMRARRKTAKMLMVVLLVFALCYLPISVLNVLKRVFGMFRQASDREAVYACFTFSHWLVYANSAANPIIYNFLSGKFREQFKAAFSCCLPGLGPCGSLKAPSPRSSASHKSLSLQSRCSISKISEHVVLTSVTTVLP
The experiment is described as follows: Orexin receptor antagonistic activity, intracellular Ca2+ fluorescence (FDSS) in CHO cells expressing hOX1R. The class given is cell-based. The following applies: CHO cells forced to express hOX1R; orexin-A analogue peptide ligand 300 pM; Fluo-4 maximum fluorescence; read-out: IC50 value OX1R.

With `CCN(CCn1ccc(-c2ccc(F)c(F)c2)n1)C(=O)c1ccccc1-c1ncccn1` [Example 59, N-{2-[3-(3,4-difluorophenyl)-1H-pyrazol-1-yl]ethyl}-N-ethyl-2-(pyrimidin-2-yl)benzamide], the IC50 in experiment [1] is 5.6 nM; in experiment [2], 1.9 nM.
The like results for `CCN(CCn1ccc(-c2cc(C(F)(F)F)ccn2)n1)C(=O)c1cc(C)ccc1-n1nccn1` [Example 60, N-ethyl-5-methyl-2-(2H-1,2,3-triazol-2-yl)-N-(2-{3-[4-(trifluoromethyl)pyridin-2-yl]-1H-pyrazol-1-yl}ethyl)benzamide] were, in that order, 127 nM and 21.9 nM.
The like results for `CCN(CCn1ccc(-c2cc(C(F)(F)F)ccn2)n1)C(=O)c1cc(F)ccc1-c1ncccn1` [Example 61, N-ethyl-5-fluoro-2-(pyrimidin-2-yl)-N-(2-{3-[4-(trifluoromethyl)pyridin-2-yl]-1H-pyrazol-1-yl}ethyl)benzamide] were, in that order, 1130 nM and 239 nM.
